Measurements published in PMC4199771, “Novel Cyclic di-GMP Effectors of the YajQ Protein Family Control Bacterial Virulence” (PLoS Pathogens, 2014).
pKd: −log10 of the molar value.

Tests used:
XC_3703 [1] = target: T1, XC_3703 (Xanthomonas campestris, UniProt Q4UQD0); test: isothermal titration calorimetry; assay type: binding
T1 construct: full-length, synthesized gene in pET47b, E. coli BL21(DE3), N-terminal His6 tag cut by 3C protease

YajQ = target: T2, YajQ (Escherichia coli, UniProt P0A8E7); test: biochemical; parameters: isothermal titration calorimetry of nucleotide binding to purified recombinant YajQ family protein
T2 construct: recombinant, N-terminal His6 tag cleaved with 3C protease
T2 sequence (P0A8E7 whole entry): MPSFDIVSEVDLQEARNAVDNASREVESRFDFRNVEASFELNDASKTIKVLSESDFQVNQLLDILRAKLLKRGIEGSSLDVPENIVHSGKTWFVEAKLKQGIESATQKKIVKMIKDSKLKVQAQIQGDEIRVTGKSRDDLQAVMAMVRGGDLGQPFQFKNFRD
Protocol: (§1) The ability of XC_3703 to bind different nucleotides including cyclic di-GMP was further examined using isothermal titration calorimetry (ITC) with the purified protein (see Materials and Methods ). The full-length XC_3703 protein bound cyclic di-GMP with high affinity with a K d of 2 µM (Figure 1B; Table S2). It appeared that binding was endothermic in nature, which is a characteristic of a binding mechanism that favours hydrogen bonding and hydrophobic interactions, [16]. […] The observed binding affinity is within the range of physiological cyclic di-GMP levels observed in Xcc and is similar to the binding affinity of a number of established cyclic di-GMP effector proteins. […] To examine whether cyclic di-GMP binding was a common feature of this family, recombinant YajQ-like proteins from various bacteria including Escherichia coli, Pseudomonas aeruginosa, Stenotrophomonas maltophilia, Bacillus cereus and Clostridium species were purified and their ability to bind different nucleotides was assessed. […] The DNA fragments encoding the proteins of interest were synthesized by Gene Oracle in pGOv4 and sub-cloned into pET47b or pLAFR3 before transformation into E. coli BL21 (DE3). Genomic regions are described in Table S7. BL21 (DE3) cells were grown in LB media and induced with 0.25 mM IPTG; protein overexpression was carried out at 37°C for 1 h. Purification was achieved by Ni^2+ affinity chromatography using the N-terminal His6 tag followed by tag cleavage using recombinant 3C protease.

Clocel_3875 = target: T3, Clocel_3875 (Clostridium cellulovorans, UniProt D9SKW9); test: biochemical; parameters: isothermal titration calorimetry of nucleotide binding to purified recombinant YajQ family protein
T3 construct: recombinant, N-terminal His6 tag cleaved with 3C protease
T3 sequence (D9SKW9 entry or part of it): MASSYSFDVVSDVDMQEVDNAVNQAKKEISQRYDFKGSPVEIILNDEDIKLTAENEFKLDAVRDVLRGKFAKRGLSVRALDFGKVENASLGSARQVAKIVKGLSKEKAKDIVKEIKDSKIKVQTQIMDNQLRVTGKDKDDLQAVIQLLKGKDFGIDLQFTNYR
Protocol: as §1

PA4395 = target: T4, PA4395 (Pseudomonas aeruginosa, UniProt Q9HW11); test: isothermal titration calorimetry; assay type: binding
T4 construct: recombinant, synthesized gene in pET47b, E. coli BL21(DE3), N-terminal His6 tag cut by 3C protease; locus tag is of strain PAO1 (PA14 used in mice)
T4 sequence (Q9HW11 whole entry): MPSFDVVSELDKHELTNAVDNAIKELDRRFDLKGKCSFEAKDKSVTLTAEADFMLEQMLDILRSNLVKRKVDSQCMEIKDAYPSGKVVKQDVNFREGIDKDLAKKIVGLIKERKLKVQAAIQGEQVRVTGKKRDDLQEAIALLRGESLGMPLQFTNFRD
Description: isothermal titration calorimetry on PA4395 | affinity for cyclic di-GMP binding was only seen in YajQ family proteins from P. aeruginosa (PA4395)

Smlt4090 = target: T5, Smlt4090 (Stenotrophomonas maltophilia, UniProt B2FHW7); test: isothermal titration calorimetry; assay type: binding
T5 construct: recombinant, synthesized gene in pET47b, E. coli BL21(DE3), N-terminal His6 tag cut by 3C protease
T5 sequence (B2FHW7 whole entry): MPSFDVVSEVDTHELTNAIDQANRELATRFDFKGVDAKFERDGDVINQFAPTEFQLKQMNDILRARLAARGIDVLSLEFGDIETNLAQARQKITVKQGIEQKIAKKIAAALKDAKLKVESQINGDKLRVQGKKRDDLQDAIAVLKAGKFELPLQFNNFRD
Description: isothermal titration calorimetry on Smlt4090 | YajQ family proteins from P. aeruginosa (PA4395) and S. maltophilia (Smlt4090)

XC_3703 [2] = target: T1, XC_3703; test: biochemical; parameters: isothermal titration calorimetry of nucleotide binding to purified recombinant YajQ family protein
Protocol: as §1

[3] = target: T6, XC_3703 (YajQ family) (Xanthomonas campestris pv. campestris 8004) (UniProt Q4UQD0); test: EMSA
T6 sequence: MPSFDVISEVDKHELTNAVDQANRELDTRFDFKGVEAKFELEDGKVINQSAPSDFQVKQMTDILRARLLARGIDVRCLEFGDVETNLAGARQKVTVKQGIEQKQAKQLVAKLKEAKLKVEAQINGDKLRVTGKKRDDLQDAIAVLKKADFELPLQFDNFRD

Question: What does the source list for `Nc1ncnc2c1ncn2[C@@H]1O[C@H](COP(=O)(O)OP(=O)(O)OP(=O)(O)O)[C@@H](O)[C@H]1O` [ATP]?
Answer: pKd (XC_3703 [1]; read-out: Kd): 2.52; pKd (YajQ): 4.55; pKd (Clocel_3875): 4.68

Question: `Nc1nc2c(ncn2[C@@H]2O[C@H](COP(=O)(O)OP(=O)(O)OP(=O)(O)O)[C@@H](O)[C@H]2O)c(=O)[nH]1` [GTP] was tested. Which pKd (XC_3703 [1]; read-out: Kd) did it give?
Answer: 1.89

Question: What about the pKd (YajQ) of the same compound?
Answer: 4.46

Question: What about the pKd (Clocel_3875) of the same compound?
Answer: 4.51

Question: How did the pKd (XC_3703 [1]) turn out when `Nc1ncnc2c1ncn2[C@@H]1O[C@@H]2COP(=O)(O)O[C@H]3[C@@H](O)[C@H](n4cnc5c(N)ncnc54)O[C@@H]3COP(=O)(O)O[C@H]2[C@H]1O` [cyclic di-AMP] was run?
Answer: 3.05

Question: Which results are given for `Nc1nc2c(ncn2[C@@H]2O[C@@H]3CO[P@](=O)(O)O[C@H]4[C@@H](O)[C@H](n5cnc6c(=O)[nH]c(N)nc65)O[C@@H]4CO[P@](=O)(O)O[C@H]3[C@H]2O)c(=O)[nH]1` [cyclic di-GMP]?
Answer: pKd (PA4395): 5.16; pKd (Smlt4090): 5.10; pKd (XC_3703 [1]): 5.70; pKd (XC_3703 [2]): 5.66

Question: “GGCATCGAACCGGCCGCACGTTTCGCGGCTGTTGTGCAGTGAATACGTATGCACAGGGTCAATGCTGCGCCGCGATGCGCGCTTAGCATCACCGCGCGCCGCACGCCGTGGGGCGCGCTTTCCGGAACAGGGGCCGGAGGGCATTGCTGCATGCATCGCTGTGCGGGATGCGTGCGTCCACTGATCAGGAGACACACCCG (double strand) [aaeB promoter probe]” was tested. Which binding [3] did it give?
Answer: no binding
